Measurements published in paper PMC12502323, “Discovery of small molecules with anthelmintic potential in the Medicines for Malaria Venture’s COVID and Global Health Priority Boxes using an infrared-based assay for Caenorhabditis elegans motility” (BMC Research Notes, 2025).

Each compound was assayed on Caenorhabditis elegans (assay: Primary screen, infrared-based (WMicroTracker ONE) C. elegans L4 motility assay at 40 µM). Conditions: primary screen at 40 µM, C. elegans L4.
Format: cell-based, Caenorhabditis elegans (Bristol N2)
Procedure: Methods to cultivate C. elegans (Bristol N2) and synchronize growth to the L4 stage were as described. WMicroTracker ONE (Phylumtech, Argentina) detects movement by measuring the scattering of infrared light beams that are projected into each well of a microtiter plate (two 880 nm beams/well in a 96w plate).
Synchronized C. elegans L4 were detached from agar and collected in M9 buffer. Worms were centrifuged for 1 min at 1,900 g and washed in S medium to decrease the concentration of E. coli OP50 that might interfere with infrared detection. Control and assay compounds (1 µL) in DMSO (Fisher Scientific, Cat# BP231-100) were spotted into each well of a clear, flat-bottomed 96-well polystyrene plate (Fisherbrand, Cat# FB012931). DMSO (1%) was used as the negative control. Approximately 70 L4 in 100 µL S medium were added per well. First pass screens employed 40 µM compound, and motility was measured every 20 min for 24 h in the WMicroTracker ONE reader in which the temperature was 25 ± 1 °C. Motility was normalized relative to the DMSO controls. Hits were defined as compounds that decreased motility to ≤ 25% of that in DMSO control worms.

| Compound | C. elegans Mean motility vs. DMSO control (%) |
| --- | --- |
| O[C@@H](c1cc(C(F)(F)F)nc2c(C(F)(F)F)cccc12)[C@H]1CCCCN1 [MMV000014] | 88.32% |
| CCCCc1oc2ccccc2c1C(=O)c1cc(I)c(OCCN(CC)CC)c(I)c1 [MMV001992] | 67.16% |
| Cc1onc(-c2ccccc2)c1-c1ccc(S(N)(=O)=O)cc1 [MMV002260] | 95.37% |
| Cc1ncc([N+](=O)[O-])n1CC(C)O (stereo not drawn) [MMV002287] | 78.09% |
| COc1cc2c3cc1Oc1c(OC)c(OC)cc4c1C(Cc1ccc(O)c(c1)Oc1ccc(cc1)CC3N(C)CC2)N(C)CC4.Cl (stereo not drawn) [MMV007474] | 94.2% |
| CC[C@@H]([C@H](C)O)n1ncn(-c2ccc(N3CCN(c4ccc(OC[C@@H]5CO[C@@](Cn6cncn6)(c6ccc(F)cc6F)C5)cc4)CC3)cc2)c1=O [MMV688774] | 86.8% |
| O=C(NC1CCCc2c1[nH]c1ccc(Cl)cc21)c1ccccn1 (stereo not drawn) [MMV690621] | 85.65% |
| Cn1cc(CN2CCc3c(c(C(=O)NCc4nccs4)nn3Cc3ccccc3)C2)c2ccccc21 [MMV1167451] | 84.51% |
| CCCOc1ccc(C(F)(F)F)cc1NC(=O)c1nc2nccc(C)n2n1 [MMV1262756] | 25.74% |
| O=C(Nc1ncccc1O)c1ccc(Cn2cccn2)cc1 [MMV1266067] | 85.15% |
| Cn1ccnc1SCC(=O)Nc1ccc(C(=O)Nc2ncccc2O)cc1 [MMV1267536] | 64.36% |
| O=C(Nc1ncccc1O)c1ccc(S(=O)(=O)NCCc2cccs2)cc1 [MMV1435700] | 75.25% |
| C[C@H](Cn1cnc2c(N)ncnc21)OCP(=O)(O)O [MMV1580478] | 95.45% |
| CC(C)Oc1ccc(-c2nc(-c3cccc4c3CC[C@@H]4NCCO)no2)cc1C#N [MMV1580492] | 83.52% |
| CC(C)(C)NC(=O)N[C@H](C(=O)N1C[C@H]2[C@@H]([C@H]1C(=O)NC(CC1CCC1)C(=O)C(N)=O)C2(C)C)C(C)(C)C (stereo partly drawn) [MMV1580497] | 86.33% |
| C[C@@H](c1nc(-c2ccc(C#N)cc2)cs1)[C@](O)(Cn1cncn1)c1ccc(F)cc1F [MMV1634362] | 84.55% |
| Oc1ccccc1CCN[C@H]1CCc2ccc(F)cc21 [MMV1726212] | 87.88% |
| CCn1cnc2c(N3CCC[C@H](c4ccncc4)C3)ncnc21 [MMV1752548] | 78.79% |
| O=C(Nc1cnc2ccccc2c1)c1ccccc1C(=O)c1ccc(F)cc1 [MMV1760745] | 93.6% |
| c1ccc(-c2ccnc(C3CCN(CC45CNCC4C5)CC3)n2)cc1 (stereo not drawn) [MMV1797658] | 81.14% |
| CO[C@H]1C[C@H](O[C@H]2[C@H](C)O[C@@H](O[C@@H]3/C(C)=C/C[C@@H]4C[C@@H](C[C@]5(C=C[C@H](C)[C@@H](C6CCCCC6)O5)O4)OC(=O)[C@@H]4C=C(C)[C@@H](O)[C@H]5OC/C(=C\C=C\[C@@H]3C)[C@]54O)C[C@@H]2OC)O[C@@H](C)[C@@H]1O [doramectin, reference compound] | 6.74% |
| abamectin [reference compound] | 3.6% |
| eprinomectin [reference compound] | 13.19% |
| milbemectin [reference compound] | 1.69% |

Same assay, conditions: primary screen at 40 µM, C. elegans L4, WMicroTracker ONE

| Compound | C. elegans Mean motility vs. DMSO control (%) |
| --- | --- |
| O[C@@H](c1cc(C(F)(F)F)nc2c(C(F)(F)F)cccc12)[C@H]1CCCCN1 [MMV000016] | 108.37% |
| NS(=O)(=O)c1cc2c(cc1Cl)N=CNS2(=O)=O [MMV001901] | 96.35% |
| OC(Cn1cncn1)(Cn1cncn1)c1ccc(F)cc1F [MMV002337] | 103.8% |
| COc1ccc(Cc2nccc3cc(OC)c(OC)cc23)cc1OC [MMV002798] | 96.9% |
| Cc1ccc(NC(=O)c2ccc(CN3CCN(C)CC3)cc2)cc1Nc1nccc(-c2cccnc2)n1 [MMV009948] | 98.37% |
| CN1CCCC1CCO[C@](C)(c1ccccc1)c1ccc(Cl)cc1 (stereo partly drawn) [MMV637229] | 98.88% |
| CCC(C)n1ncn(-c2ccc(N3CCN(c4ccc(OCC5COC(Cn6cncn6)(c6ccc(Cl)cc6Cl)O5)cc4)CC3)cc2)c1=O (stereo not drawn) [MMV637528] | 97.65% |
| CC(=O)N1CCN(c2ccc(OC[C@@H]3CO[C@@](Cn4ccnc4)(c4ccc(Cl)cc4Cl)O3)cc2)CC1 [MMV637533] | 113.2% |
| CC(C)(C)NC(=O)[C@@H]1CN(Cc2cccnc2)CCN1C[C@@H](O)C[C@@H](Cc1ccccc1)C(=O)N[C@H]1c2ccccc2C[C@H]1O [MMV659198] | 103.91% |
| CO[C@@H](C(=O)N1Cc2[nH]nc(NC(=O)c3ccc(N4CCN(C)CC4)cc3)c2C1)c1ccccc1 [MMV676600] | 100.25% |
| CC(=O)Oc1ccccc1C(=O)Nc1ncc([N+](=O)[O-])s1 [MMV688991] | 112.67% |
| CC(C)C[C@H](NC(=O)[C@@H](NC(=O)c1cccc(-c2ccccc2)n1)[C@@H](C)O)B(O)O [MMV690548] | 97.97% |
| CNCc1[cH-]ccc1CNc1ccnc2cc(Cl)ccc12.[Fe+2].c1cc[cH-]c1 [MMV892669] | 102.88% |
| O=C(Nc1ncccc1O)c1ccc(N2CCOCC2)nc1 [MMV1103183] | 99.33% |
| CCC1=C(c2ccc(C)cc2)S(=O)(=O)N=C1N1CCC(C(=O)NCCN2CCCC[C@@H]2C)CC1 [MMV1704710] | 104.04% |
| O=C(NC1CCN(CCOc2ccc(Cl)cc2)CC1)c1c[nH]c2ccncc2c1=O [MMV1798946] | 99.33% |
| CC[C@@H](C(=O)[C@@H](C)[C@@H](O)[C@H](C)[C@@H]1O[C@@H]([C@@H](CC)C(=O)O)CC[C@@H]1C)[C@H]1O[C@]2(C=C[C@@H](O)[C@]3(CC[C@@](C)([C@H]4CC[C@](O)(CC)[C@H](C)O4)O3)O2)[C@H](C)C[C@@H]1C [MMV1804312] | 96.95% |

Same assay, conditions: primary screen at 40 µM; hit if motility < 25%

| Compound | C. elegans NOTES (HIT) |
| --- | --- |
| CO[C@H]1C[C@H](O[C@H]2[C@H](C)O[C@@H](O[C@@H]3/C(C)=C/C[C@@H]4C[C@@H](C[C@]5(C=C[C@H](C)[C@@H](C6CCCCC6)O5)O4)OC(=O)[C@@H]4C=C(C)[C@@H](O)[C@H]5OC/C(=C\C=C\[C@@H]3C)[C@]54O)C[C@@H]2OC)O[C@@H](C)[C@@H]1O [doramectin, reference compound] | HIT |
| abamectin [reference compound] | HIT |
| eprinomectin [reference compound] | HIT |
| milbemectin [reference compound] | HIT |
